Test results as given in US8586551B2, “18-membered macrocycles and analogs thereof” (Optimer Pharmaceuticals, Inc., priority 2005, dated 2013).
≈ marks a conversion by molar mass, not a printed value.

How the values were obtained:
[1] = test system: Peptostreptococcus anaerobius; assay: MIC against anaerobes: Peptostreptococcus anaerobius; type: cell-based; details: Peptostreptococcus anaerobius (15)
Clostridium species = assay: MIC against anaerobes: Clostridium species; type: cell-based; details: Clostridium species (19)
Procedure: (§1) The in vitro activity of OPT-80 was determined against 350 anaerobes. The experimental procedure for which is outlined in Antimicrobial Agents and Chemotherapy, 2004, 48: 4430-4434, which is hereby incorporated by reference in its entirety.
(§2) All organisms, including the 21 C. difficile strains, were separate isolates and not clonally related. All quality-control gram-negative and -positive strains recommended by NCCLS were included with each run: in every case, results (where available) were in range.

E. faecium = assay: MIC against other microorganisms: E. faecium
[2] = test system: Peptostreptococcus asaccharolyticus; assay: MIC against anaerobes: Peptostreptococcus asaccharolyticus; type: cell-based; details: Peptostreptococcus asaccharolyticus (15)
Veillonella spp. = assay: MIC against intestinal bacteria: Veillonella; type: cell-based; details: Veillonella spp. (10)
Procedure: (§3) The in vitro activity of OPT-80 against intestinal bacteria was evaluated. The experimental procedure for which is outlined in Antimicrobial Agents and Chemotherapy, 2004, 48: 4898-4902, which is hereby incorporated by reference in its entirety.
(§4) Antimicrobial concentration ranges were selected to encompass or surpass the levels that would be achieved in the gut (to the extent that this information is available), subject to the limitations of solubility of the drugs in the testing medium. The range of concentration of OPT-80 used during testing was 0.03 μg/ml to 1024 μg/ml.
(§5) For analysis, the bacteria tested were generally placed into genus, species, or other groups with at least 10 isolates. The ranges and the MICs at which 50 and 90% of isolates were inhibited were determined except for organisms with fewer than 10 strains tested, for which only the ranges are reported (Table 8).

Fusobacterium nucleatum = assay: MIC against anaerobes: Fusobacterium nucleatum; type: cell-based; details: Fusobacterium nucleatum (14)
Procedure: as §1, §2

E. faecalis = assay: MIC against other microorganisms: E. faecalis; details: Enterococcus faecalis
Clostridium innocuum = assay: MIC against intestinal bacteria: Clostridium innocuum; type: cell-based; details: Clostridium innocuum (9)
Procedure: as §3, §4, §5

[3] = test system: Peptostreptococcus prevotii; assay: MIC against anaerobes: Peptostreptococcus prevotii; type: cell-based; details: Peptostreptococcus prevotii (3)
[4] = test system: Peptostreptococcus tetradius; assay: MIC against anaerobes: Peptostreptococcus tetradius; type: cell-based; details: Peptostreptococcus tetradius (16)
Clostridium ramosum = assay: MIC against intestinal bacteria: Clostridium ramosum; type: cell-based
[5] = test system: All anaerobic gram-negative species; assay: MIC against intestinal bacteria: all anaerobic gram-negative species; type: cell-based
[6] = test system: Clostridium paraputrificum; assay: MIC against intestinal bacteria: Clostridium paraputrificum; type: cell-based; details: Clostridium paraputrificum (8)
[7] = test system: Staphylococcus aureus and Staphylococcus epidermidis; assay: MIC against intestinal bacteria: Staphylococcus aureus and Staphylococcus epidermidis; type: cell-based; details: Staphylococcus aureus and Staphylococcus epidermidis (19)
[8] = test system: Anaerobic gram-positive cocci; assay: MIC against intestinal bacteria: anaerobic gram-positive cocci; type: cell-based; details: Anaerobic gram-positive cocci (49)
Enterococcus species = assay: MIC against intestinal bacteria: Enterococcus species; type: cell-based; details: Enterococcus species (21)
[9] = test system: Other Streptococcus species; assay: MIC against intestinal bacteria: other Streptococcus species; type: cell-based; details: Other Streptococcus species (9)
Procedure: as §3, §4, §5

Propionibacterium acnes = assay: MIC against anaerobes: Propionibacterium acnes; type: cell-based; details: Propionibacterium acnes (20)
[10] = test system: Miscellaneous gram-positive non-spore-forming rods; assay: MIC against anaerobes: miscellaneous gram-positive non-spore-forming rods; type: cell-based; details: Miscellaneous gram-positive non-spore-forming rods (20)
Clostridium difficile = assay: MIC against anaerobes: Clostridium difficile; type: cell-based; details: Clostridium difficile (21)
Procedure: as §1, §2

Bacteroides fragilis = assay: MIC against anaerobes: Bacteroides fragilis; type: cell-based; details: Bacteroides fragilis (19)
Procedure: as §1, §2

[11] = test system: Prevotella/Porphyromonas species; assay: MIC against anaerobes: Prevotella/Porphyromonas; type: cell-based; details: Prevotella/Porphyromonas species (42)
Procedure: as §1, §2

S. aureus = assay: MIC against other microorganisms: S. aureus
453 bacterial isolates = assay: MIC against intestinal bacteria: total for all strains; type: cell-based
Clostridium perfringens = type: cell-based; details: Clostridium perfringens (14)
Clostridium spp. (all) = assay: MIC against anaerobes: Clostridium spp. (all); type: cell-based
Procedure: as §1, §2

Micromonas micros = assay: MIC against anaerobes: Micromonas micros; type: cell-based; details: Micromonas micros (14)
[12] = test system: Streptococcus, formerly S. milleri group; assay: MIC against intestinal bacteria: Streptococcus, formerly S. milleri group; type: cell-based
[13] = test system: Other anaerobic gram-negative rods; assay: MIC against intestinal bacteria: other anaerobic gram-negative rods; type: cell-based

CCc1c(Cl)c(O)c(Cl)c(O)c1C(=O)O[C@H]1[C@H](O)[C@H](OC)[C@H](OCC2=CC=CC[C@H](O)C(C)=C[C@H](CC)[C@@H](O[C@@H]3OC(C)(C)[C@@H](OC(=O)C(C)C)[C@H](O)[C@@H]3O)C(C)=CC(C)=CC[C@@H]([C@@H](C)O)OC2=O)O[C@@H]1C [R-Tiacumicin B, 3-[[[6-Deoxy-4-O-(3,5-dichloro-2-ethyl-4,6-dihydroxybenzoyl)-2-O-methyl-β-D-mannopyranosyl]oxy]-methyl]-12(R)-[[6-deoxy-5-C-methyl-4-O-(2-methyl-1-oxopropyl)-β-D-lyxo-hexopyranosyl]oxy]-11(S)-ethyl-8(S)-hydroxy-18(S)-(1(R)-hydroxyethyl)-9,13,15-trimethyloxacyclooctadeca-3,5,9,13,15-pentaene-2-one]
MIC50 [1]: < 0.016 µg/mL | MIC90 [1]: < 0.016 µg/mL | MIC range [1]: <0.016 to 0.03 µg/mL | MIC50 (Clostridium species): < 0.016 µg/mL | MIC90 (Clostridium species): 0.03 µg/mL (≈ 0.0284 µM) | MIC (E. faecium; Enterococcus faecium): 1 µg/mL (≈ 0.945 µM) | MIC (E. faecium; Strain ID # 8, E. faecium Vanc. resistant): 1 µg/mL (≈ 0.945 µM) | MIC50 ([2]; Peptoniphilus asaccharolyticus): 0.5 µg/mL (≈ 0.473 µM) | MIC90 ([2]; Peptoniphilus asaccharolyticus): 1 µg/mL (≈ 0.945 µM) | MIC range [2]: 0.25 to 1.0 µg/mL | MIC50 (Veillonella spp.): 32 µg/mL (≈ 30.2 µM) | MIC90 (Veillonella spp.): 128 µg/mL (≈ 121 µM) | MIC range (Veillonella spp.): 16 to 128 µg/mL | MIC50 (Fusobacterium nucleatum): > 128 µg/mL | MIC90 (Fusobacterium nucleatum): > 128 µg/mL | MIC (E. faecalis; ATCC29212, Strain ID # 4, E. faecalis (ATCC 29212)): 2 µg/mL (≈ 1.89 µM) | MIC (E. faecalis; Strain ID # 5, E. faecalis Vanc. resistant): 4 µg/mL (≈ 3.78 µM) | MIC (E. faecalis; Strain ID # 6, E. faecalis Vanc. resistant): 1 µg/mL (≈ 0.945 µM) | MIC range (Clostridium innocuum): 32 to 128 µg/mL | MIC range [3]: 0.25 to 1.0 µg/mL | MIC50 ([4]; Anaerococcus tetradius): 1 µg/mL (≈ 0.945 µM) | MIC90 ([4]; Anaerococcus tetradius): 1 µg/mL (≈ 0.945 µM) | MIC range [4]: 0.25 to 2.0 µg/mL | MIC range (Clostridium ramosum; Clostridium ramosum (10)): 256 to 512 µg/mL | MIC50 (Clostridium ramosum; Thomasclavelia ramosa): 512 µg/mL (≈ 484 µM) | MIC90 (Clostridium ramosum; Thomasclavelia ramosa, Clostridium ramosum (10)): 512 µg/mL (≈ 484 µM) | MIC90 [5]: > 1020 µg/mL | MIC50 ([5]; All anaerobic gram-negative species (111)): 256 µg/mL (≈ 242 µM) | MIC range [6]: 0.06 to 8 µg/mL | MIC50 [7]: 0.5 µg/mL (≈ 0.473 µM) | MIC90 [7]: 2 µg/mL (≈ 1.89 µM) | MIC range [7]: 0.25 to 2 µg/mL | MIC50 [8]: 0.5 µg/mL (≈ 0.473 µM) | MIC90 [8]: 2 µg/mL (≈ 1.89 µM) | MIC50 (Enterococcus species): 8 µg/mL (≈ 7.56 µM) | MIC90 (Enterococcus species): 8 µg/mL (≈ 7.56 µM) | MIC range (Enterococcus species): 2.0 to 16 µg/mL | MIC range [9]: 16 to 128 µg/mL | MIC50 (Propionibacterium acnes; Cutibacterium acnes): 4 µg/mL (≈ 3.78 µM) | MIC90 (Propionibacterium acnes; Cutibacterium acnes): 4 µg/mL (≈ 3.78 µM) | MIC range (Propionibacterium acnes): 0.5 to 1.0 µg/mL | MIC50 [10]: < 0.125 µg/mL | MIC90 [10]: 16 µg/mL (≈ 15.1 µM) | MIC range [10]: <0.016 to 16 µg/mL | MIC50 (Clostridium difficile; Clostridioides difficile): < 0.016 µg/mL | MIC90 (Clostridium difficile; Clostridioides difficile): 0.125 µg/mL (≈ 0.118 µM) | MIC range (Clostridium difficile): <0.016 to 0.25 µg/mL | MIC50 (Bacteroides fragilis): > 128 µg/mL | MIC90 (Bacteroides fragilis): > 128 µg/mL | MIC50 [11]: > 128 µg/mL | MIC90 [11]: > 128 µg/mL | MIC (S. aureus; Staphylococcus aureus, ATCC29213): 4 µg/mL (≈ 3.78 µM) | MIC (S. aureus; Staphylococcus aureus, MRSA): 4 µg/mL (≈ 3.78 µM) | MIC (S. aureus; Strain ID # 3, S. aureus, (MRSA)): 4 µg/mL (≈ 3.78 µM) | MIC90 (453 bacterial isolates): 1020 µg/mL (≈ 968 µM) | MIC50 (453 bacterial isolates; Total for all strains (453)): 8 µg/mL (≈ 7.56 µM) | MIC range (Clostridium perfringens): 0.06 µg/mL (≈ 0.0567 µM) | MIC50 (Clostridium spp. (all)): < 0.016 µg/mL | MIC90 (Clostridium spp. (all)): 0.06 µg/mL (≈ 0.0567 µM) | MIC range (Micromonas micros): <0.016 to 0.06 µg/mL | MIC50 (Micromonas micros; Parvimonas micra): 0.03 µg/mL (≈ 0.0284 µM) | MIC90 (Micromonas micros; Parvimonas micra): 0.06 µg/mL (≈ 0.0567 µM) | MIC50 [12]: 32 µg/mL (≈ 30.2 µM) | MIC90 [12]: 32 µg/mL (≈ 30.2 µM) | MIC range ([12]; formerly S. milleri group (14)): 16 to 64 µg/mL | MIC50 [13]: 1020 µg/mL (≈ 968 µM) | MIC90 [13]: > 1020 µg/mL | MIC range ([13]; Other anaerobic gram-negative rods (51)): 0.06 to 1024 µg/mL
